The record followed here is PubChem BioAssay (NCI).

What all share (assay): inhibition of tumour cell growth, NCI panel, 48 h
Test [1] relates to EKVX NSCLC.
Test [2] concerns HOP-62 NSCLC.
Test [3] deals with NCI-H226 lung.
For test [4], the system named is RPMI-8226 leukemia.
Test [5] has as its system SF-268 CNS.
Test [6] concerns SF-295 CNS.
Test [7] concerns SNB-75 CNS.
For test [8], the system named is TK-10 renal.
In test [9] the test system is UACC-62 melanoma.

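Assay format: 96-well plates, 48-hour exposure. Here, GI50 denotes the concentration required for 50% inhibition of growth. TGI: total growth inhibition.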

For the compound `c1ccc2c(c1)ccn1ccc3c4ccccc4nc-3c21`, the TGI in test [1] came out at 1.13 µM; in [2], 1.85 µM; in test [3], 1.81 µM; in [4], 0.799 µM; in test [5], 2.29 µM; in test [6] it was 2.03 µM. In addition, the TGI came to 2.15 µM in test [7], 4.34 µM in test [8] and 3.81 µM in test [9].
In the case of `CC1C2=C(CCCC2=O)N(c2ccc(Cl)cc2)C2=C1C(=O)CCC2`, the TGI in test [1], in test [3], in [4], in test [5], in test [7] and in test [8] was over 100 µM each time. Also, the TGI in test [9] was over 100 µM.
In the case of `CCC(O)c1ccc(N=Cc2ccccc2O)cc1` (stereo unspecified), the TGI in [1], in test [2], in [3], in test [4], in test [5] and in [6] was over 100 µM in each case. The TGI in test [7], in test [8] and in [9] was over 100 µM each time.
On to `Cc1ccc2oc3c(c(Br)c(Br)n3C)c(=O)c2c1`, for which the TGI is 44.2 µM in [1]; 33.3 µM in test [2]; 32.9 µM in [3]; over 100 µM in [4]; over 100 µM in test [5]; 47.2 µM in test [6]. The TGI is 38.9 µM in [8] and 52.3 µM in [9].
For the compound `O=c1[nH]c(=O)n(C2CC(O)C(CO)O2)cc1C#Cc1ccc(F)cc1` (stereo unspecified), the TGI in [1], in test [2], in [3], in test [4], in [5] and in test [6] was over 100 µM each time. In addition, the TGI in [7] and in test [9] was over 100 µM each time.
As for `COc1ccc2[nH]c3c(C)cc([N+](=O)[O-])c(C)c3c2c1`, the TGI in test [1] is over 100 µM; in [3], over 100 µM; in [4], 62.7 µM; in [5] it was over 100 µM; in [6], over 100 µM; in test [7], 86.1 µM. The same compound showed a TGI in [8] of 76.5 µM.
Turning to `CC1(C)CCCCCC(C)(CCCO)C1=O` (stereo unspecified), the TGI in test [1], in test [2], in [3], in test [4], in [5] and in test [6] was over 100 µM throughout. In addition, the TGI in test [7] and in test [9] was over 100 µM throughout.
As for `OC12c3ccccc3C3CCC4(OCCO4)C3C1c1ccccc12` (stereo unspecified), the TGI in test [1], in test [2], in test [3], in [4], in test [5] and in test [6] was over 100 µM each time. Further, the TGI in [7], in test [8] and in test [9] was over 100 µM throughout.
Turning to `CC(CN(C)C)C(=O)c1ccccc1` (stereo unspecified), the TGI is over 79 µM in test [1]; over 100 µM in test [2]; over 100 µM in [3]; 19.8 µM in test [4]; 85 µM in [5]; over 100 µM in test [6]. For the same compound, the TGI was over 100 µM in test [7], over 100 µM in [8] and over 57.4 µM in test [9].
With `O=C(OC/C=C1C=C(OC(=O)c2ccccc2)/C(=N/N(C(=O)c2ccccc2)c2ccccc2)O\1)c1ccccc1`, the results for the GI50 in [2] and in test [7] were 18.8 µM and 18.5 µM, respectively. For the same compound, the TGI in [2] came out at 37 µM; in test [3], 54.1 µM; in test [4], 7.24 µM; in test [5], 6.85 µM; in test [6], 21.4 µM; in test [7], 37.9 µM. Further, the TGI in test [8] turned out to be 21.8 µM.
For the compound `CCCN(CCC)c1c([N+](=O)[O-])cc(C(=O)N(CCO)CCO)cc1[N+](=O)[O-]`, the TGI in test [1], in test [3], in [4], in test [5], in test [6] and in test [7] was over 100 µM in each case. Further, the TGI in test [8] was over 100 µM.
For the compound `CC(=O)N(O)Cc1ccccc1`, the TGI in test [2], in test [3], in [4], in [5], in [6] and in test [7] was over 100 µM throughout. Also, the TGI in test [8] and in test [9] was over 100 µM each time.
Turning to `CCOC(=O)c1c(N2CCCC2)ncn(C)c1=S`, the TGI in [1], in [2], in test [3], in test [4], in [5] and in test [6] was over 100 µM each time. The TGI in test [8] and in [9] was over 100 µM in each case.
